Laboratory results published in ChEMBL document CHEMBL1144704, “Phloroglucinols with prooxidant activity from Garcinia subelliptica” (J Nat Prod, 2008).
Calls of active or inactive are those of the source. No cut-off for these calls is given here.

Tests used:
Escherichia coli [1] = test: Induction of Cu(2)-mediated pBR322 DNA cleavage assessed as conversion of supercoiled to relaxed open circle at 50 to 300 uM by agarose gel electrophoresis
Escherichia coli [2] = test: Induction of Cu(2)-mediated pBR322 DNA cleavage assessed as conversion of supercoiled to relaxed open circle at 300 uM by agarose gel electrophoresis in presence of superoxide dismutase
Escherichia coli [3] = test: Induction of Cu(2)-mediated pBR322 DNA cleavage assessed as conversion of supercoiled to relaxed open circle at 300 uM by agarose gel electrophoresis in presence of potassium iodide
Escherichia coli [4] = test: Induction of Cu(2)-mediated pBR322 DNA cleavage assessed as conversion of supercoiled to relaxed open circle at 300 uM by agarose gel electrophoresis in presence of catalase

| Activity (Escherichia coli [1]) | Activity (Escherichia coli [2]) | Activity (Escherichia coli [3]) | Activity (Escherichia coli [4]) | SMILES |
| --- | --- | --- | --- | --- |
| inactive | – | – | – | C=C(C)CC[C@@H](C[C@@H]1C[C@]2(CC=C(C)C)C(=O)[C@@](C(=O)c3ccc(O)c(O)c3)(C(=O)C3=C2O[C@@H](C(C)(C)O)C3)C1(C)C)C(=C)C |
| Active | Active | Active | Active | CC(C)=CC[C@]12C[C@H](O)C(C)(C)O[C@@H](C(C)(C)O)C[C@@](O)(C(=O)C(C(=O)C(C)C)=C1O)C2=O |
| – | Active | Active | Active | C=C(C)CC[C@@H](C[C@H]1C[C@@]2(CC=C(C)C)C(=O)C(CC=C(C)C)=C(O)[C@@](C(=O)c3ccc(O)c(O)c3)(C2=O)C1(C)C)C(=C)C (stereo in doubt; 2) |
| – | Active | Active | Active | C=C(C)CC[C@@H](C[C@H]1C[C@@]2(CC=C(C)C)C(=O)C(CC=C(C)C)=C(O)[C@@](C(=O)c3ccc(O)c(O)c3)(C2=O)C1(C)C)C(=C)C (stereo in doubt; 2a) |
